This is an account of results in patent publication US20260069725A1, “LIGAND COMPOUND TARGETING PSMA ANTIGEN, AND CHELATE AND USE THEREOF IN DIAGNOSIS AND TREATMENT OF PROSTATE CANCER” (Chengdu StarRay Therapeutics Co., Ltd, priority 2021, published 2026).

For series [1], the system named is LNCaP tumor bearing mice. The series is described as follows: Inhibition on tumor. It counts as in vivo. As to conditions: 14.8 MBq (400 μCi). On the procedure:
PSMA positive LNCaP cells were proliferated and harvested, and then inoculated subcutaneously in mice at an amount of 1×10^7/mouse. When the tumors grew to 200-400 mm^3, the mice were randomly grouped according to the tumor size (3-4 mice in each group), and were given the compound (400 μCi) of the present invention labeled with […] or the positive control compound PSMA-617 labeled with ^177Lu via tail vein injection, respectively. The tumor sizes and body weights of the mice were measured every 3 days after administration, and the death of the mice was recorded. The control group and the administration group were compared to understand the inhibition on LNCaP tumors by different drugs. On day 6 after administration, SPECT/CT scanning was performed on the administration group to understand the exposure of different drugs at the tumor sites during the treatment.

Series [2] has as its system LNCaP tumor bearing mice. The series is described as follows: SPECT/CT scanning, exposure of 177Lu labeled compounds in tumor and tissues. In kind it is in vivo. To be noted: labeled with 177Lu; about 7.4 MBq (200 μCi) tail vein; scans 1-72 h. On the procedure: The ^177Lu labeled precursor compound was diluted to 7.4 MBq (200 μCi)/200 […] with normal saline, and each tumor bearing mouse was given about 7.4 MBq (200 μCi) of the drug via tail vein injection. SPECT/CT scanning was performed on the mice at 1, 4, 8, 24, 48 and 72 h after administration, respectively, with the mice under continuous anesthesia with isoflurane, lying prone on an examination bed. The acquisition method was static imaging 12 min SPECT, and medium resolution whole-body imaging CT. During the process, according to the recording table, the animal body weight, injection dose, injection time and residual dose were recorded, and the time of measuring the injection dose and the time of measuring the residual dose were recorded respectively. After scanning, the data were reconstructed, PMOD software was used to analyze and delineate each organ tissue and quantify the drug distribution therein, the images and data were saved, and the data were further subjected to statistical analysis.
Drug exposure in each tissue was calculated (Table 1, where the values involving PSMA-D were the predicted values).

For the compound `O=C([O-])CN1CCN(CC(=O)[O-])CCN(CC(=O)NCC2CCC(C(=O)N[C@@H](Cc3ccc4ccccc4c3)C(=O)NCCCC[C@H](NC(=O)N[C@@H](CCC(=O)O)C(=O)O)C(=O)O)CC2)CCN(CC(=O)[O-])CC1.[177Lu+3]` (stereo partly shown) [^177Lu-PSMA-617], the “body weight of the animals during the treatment” value in the series on LNCaP tumor bearing mice [1] was “no significant difference”.
For the compound `O=C(O)CC[C@H](NC(=O)N[C@@H](CCCCNC(=O)[C@H](Cc1ccc2ccccc2c1)NC(=O)[C@H]1CC[C@H](CNC(=O)CN2CCN(CC(=O)O)CCN(CC(=O)O)CCN(CC(=O)O)CC2)CC1)C(=O)O)C(=O)O` [PSMA-617, reference compound], in the series on LNCaP tumor bearing mice [2], the “Exposure in Bladder” value is listed as 553.2 h*ID %/g, the “Exposure in Bone” value amounted to 9.939 h*ID %/g, the “Exposure in Heart” value is recorded as 23.31 h*ID %/g and the “Exposure in Kidney” value was 77.45 h*ID %/g. For the same compound, in the series on LNCaP tumor bearing mice [2], the “Exposure in Liver” value is listed as 48.92 h*ID %/g, the “Exposure in Lung” value amounted to 40.93 h*ID %/g, the “Exposure in Muscle” value is recorded as 36.36 h*ID %/g and the “Exposure in Spleen” value is recorded as 54.27 h*ID %/g. The “Exposure in Tumor” value in the series on LNCaP tumor bearing mice [2] came to 346.9 h*ID %/g.
